US4939256A, “Novel platinum complex, antineoplastic agent containing the same, and intermediate therefor” (Kanebo Ltd., priority 1988, dated 1990)

Columns and labels:
Leukemia P388 = assay: Experiment 1: Test of antitumor activity (increase in life span of tumor-bearing mice); format: in vivo, BDF1 male mice; conditions: intraperitoneal, P388 in BDF1 mice; for Increase in life span (ILS %): observed until 30th day
Method: (a) Animals: BDF1 male mice (6 week age, weighing 22 to 25 g, 4 animals per each group)
(b) Tumor cells: Leukemia P388
Tumor cells (1×10^6 per mouse) were intraperitoneally inoculated into mice. After 24 hours, a solution of each test compound in physiological saline solution was intraperitoneally administered to the mice. In control mice, only physiological saline solution was intraperitoneally administered.
Survival days of the mice was observed until 30th day after the inoculation of tumor cells. Mean survival days (X) in the mice administered with test compound and mean survival days (Y) in the control mice were measured, and the increase in life span (ILS %) was calculated by the following equation: [formula]

[1] = tested on: Cisplatin-resistant L1210 cells (L1210/DDP) and L1210 cells; assay: Experiment 2: Effects on cisplatin-resistant tumor cells (growth inhibition, resistance index); format: cell-based; conditions: L1210/DDP versus L1210, from IC50 after 48 hours; for Resistance index, maximum: maximum of 2 to 4 tests; for Resistance index, Mean: mean of 2 to 4 tests; for Resistance index, minimum: minimum of 2 to 4 tests
Method: 2. Cisplatin-resistant L1210 cells (hereinafter, referred to as L1210/DDP), which is available from Cancer Chemotherapy Center, Japanese Foundation for Cancer Research
RPMI-1640 medium containing 10% (v/v) fetal bovine serum, which was prepared as follows:
RPMI-1640 (manufactured by GIBCO) (10.4 g), sodium hydrogen carbonate (1.3 g), streptomycin sulfate ([…]), penicillin G potassium ([…]) and a 1% aqueous solution of β-mercaptoethanol (40 μl) were dissolved in distilled water (one liter). To this mixture (90 parts by volume) was added fetal bovine serum (manufactured by GIBCO) (10 parts by volume) to give RPMI-1640 medium containing 10% (v/v) fetal bovine serum (hereinafter, referred to as "serum-containing RPMI-1640 medium").
L1210 cells or L1210/DDP cells were added to the serum-containing RPMI-1640 medium to prepare a cell suspension (3×10^5 cells/ml). The cell suspension (each 1 ml) was seeded onto a microplate (Falcon 3047, manufactured by Falcon) and cultivated in air containing 5% CO2 gas at 37° C. (one group, 3 wells). After cultivating for 24 hours, a solution of each test compound (1 ml) (which was prepared by dissolving each test compound in the serum-containing RPMI-1640 medium in various concentrations) was added to the medium, and the mixture was cultivated under the same conditions for 48 hours. After the cultivation, the number of viable cells was counted by Trypan Blue exclusion test method, and the mean number of viable cells in each group was calculated. Besides, in the control group, the above was repeated by using the serum-containing RPMI-1640 medium instead of the solution of test compound, and the mean number of viable cells in the control group was calculated likewise. From the mean number of viable cells in various concentration of test compound and the mean number of viable cells in the control group, the concentration required for 50% inhibition of growth (IC50) was calculated by probit method. Then, the resistance index of test compound was calculated by the following equation: [formula]
The above test was repeated for 2 to 4 times, and the mean resistance index was obtained.

BDF1 male mice = assay: Experiment 4: Acute toxicity (LD50); format: in vivo; conditions: intraperitoneal, until 14th day, Weil method
Method: (§1) (a) Animal: BDF1 male mice (6 week age, weighing 22-25 g, 5 animals per each group)
Each test compound was dissolved or suspended in a physiological saline solution, and the solution or suspension (0.1 ml/10 g body weight) was intraperitoneally administered to mice. The number of mice that died was counted until 14th day after administration of test compound, and the acute toxicity (LD50) was calculated by Weil method.

kidney = assay: Experiment 3: Side effect on kidney (blood urea nitrogen value); format: in vivo, BDF1 male mice; conditions: intraperitoneal, 4th day after administration, versus control mice
Method: It was studied in the blood urea nitrogen value (BUN value) as an index.
as §1
Each test compound was dissolved in a physiological saline solution, and the solution (0.1 ml/10 g body weight) was intraperitoneally administered. In the control mice, only the physiological saline solution (0.1 ml/10 g body weight) was intraperitoneally administered. On the 4th day after the administration, the test compound-administered mice and the control mice were bleeded from the femoral artery, and the collected blood was centrifuged at 3,000 r.p.m. at 4° C. for 15 minutes to give a test serum. BUN value in the test serum was measured by a urease indophenol method using a kit for measuring urea nitrogen (Urea NB-Test Wako, manufactured by Wako Pure Chemical Industries, Ltd.). That is, the above test serum (20 μl) was taken in a test tube and thereto was added color reagent A [a mixture of a urease solution (one part by volume) and phosphate buffer (pH 7.0, 20 parts by volume), 2.0 ml], and the mixture was mixed well and incubated at 37° C. for 15 minutes. […]
The absorbance of the standard solution and test solution was measured at 570 nm with a spectrophotometer with reference to the blank solution as a control, and BUN value in the test serum was calculated by the following equation: [formula] […]

[2] = prior art, clinically used; cited from earlier work

Row | Molecule | Increase in life span (ILS %) (Leukemia P388; 25 mg/kg) [%] | Increase in life span (ILS %) (Leukemia P388; 50 mg/kg) [%] | Increase in life span (ILS %) (Leukemia P388; 100 mg/kg) [%] | dose showing maximum increase in life span in Experiment 1 (Leukemia P388) [mg/kg] | also measured
1 | O=C1C[O][Pt]2([NH]C3CC[N]2C3)[O]1 (racemic) [Platinum complex A-2, α-glycolato-(3RS)-3-aminopyrrolidine platinum (II)] | 108 | 172 | 115 | 50 | 
2 | a mixture of α-glycolato-(3RS)-3-aminopyrrolidine platinum (II) (Isomer a-1) and β-glycolato-(3RS)-3-aminopyrrolidine platinum (II) (Isomer a-2) [Platinum complex A-1] | 74 | 167 | -43 | 50 | 
3 | a mixture of α-glycolato-(3RS)-3-aminopyrrolidine platinum (II) (Isomer a-1) and β-glycolato-(3RS)-3-aminopyrrolidine platinum (II) (Isomer a-2) [Platinum complex A-3] | 111 | 170 | 26 | 50 | Resistance index, maximum ([1]; 2880 min): 4.6; Resistance index, Mean ([1]; 2880 min): 4.6; Resistance index, minimum ([1]; 2880 min): 4.6; LD50 (BDF1 male mice; 20160 min): 107.0 mg/kg
4 | N.N.[Cl][Pt][Cl] [Cisplatin, cisdiamminedichloroplatinum (II), reference compound] |  |  |  | 10 | Rate of change of BUN value (%) (kidney; 10 mg/kg): +106%; Rate of change of BUN value (%) (kidney; 15 mg/kg): +128%; antineoplastic activity, in words [2]: excellent antineoplastic activity; Increase in life span (ILS %) (Leukemia P388; 5 mg/kg): 108%; Increase in life span (ILS %) (Leukemia P388; 10 mg/kg): 167%; Increase in life span (ILS %) (Leukemia P388; 20 mg/kg): -11%
5 | a mixture of α-glycolato-(3RS)-3-aminopiperidine platinum (II) (Isomer b-1) and β-glycolato-(3RS)-3-aminopiperidine platinum (II) (Isomer b-2) [Platinum complex B-1] | 131 | 174 | -45 | 50 | Resistance index, maximum [1]: 5.4; Resistance index, Mean [1]: 4.3; Resistance index, minimum [1]: 3.2; LD50 (BDF1 male mice): 57.0 mg/kg
